Measured values published in ChEMBL document CHEMBL1124222 (J Med Chem, 1988).

These compounds were tested against T1, D(2) dopamine receptor (Rattus norvegicus, UniProt P61169) (assay: Inhibitory constant against binding of [125I]- IBZM to rat striatal membrane).
Set-up: species or system Striatum

T1 sequence (P61169 whole entry): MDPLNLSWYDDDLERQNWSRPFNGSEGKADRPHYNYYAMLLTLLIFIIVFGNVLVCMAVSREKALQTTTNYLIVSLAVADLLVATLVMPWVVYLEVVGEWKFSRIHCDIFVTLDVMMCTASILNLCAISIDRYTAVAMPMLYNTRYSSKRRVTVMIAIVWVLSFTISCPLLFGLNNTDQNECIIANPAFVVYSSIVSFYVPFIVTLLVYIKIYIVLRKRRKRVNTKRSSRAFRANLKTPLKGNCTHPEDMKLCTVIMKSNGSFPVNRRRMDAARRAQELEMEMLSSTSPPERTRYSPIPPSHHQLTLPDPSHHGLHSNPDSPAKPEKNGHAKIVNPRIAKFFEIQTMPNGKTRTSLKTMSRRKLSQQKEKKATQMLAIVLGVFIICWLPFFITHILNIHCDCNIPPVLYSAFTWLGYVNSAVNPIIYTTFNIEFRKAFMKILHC

Ki | SMILES
30.3 nM | CCN1CCC[C@@H]1CNC(=O)c1c(OC)ccc(I)c1O
31.1 nM | CCN1CCC[C@H]1CNC(=O)c1c(O)cccc1OC
0.633 nM | CCN1CCC[C@H]1CNC(=O)c1c(OC)ccc(I)c1O [IOLOPRIDE]
359 nM | O=C(c1ccc(F)cc1)C1CCN(CCn2c(=O)[nH]c3ccccc3c2=O)CC1 [KETANSERIN]

The compounds below were run against T1, D(2) dopamine receptor (assay: Affinity constant of compound was evaluated in rat striatum tissue preparation.).
Format: tissue-based

Ki | SMILES
0.43 nM | CCN1CCCC1CNC(=O)c1c(OC)ccc(I)c1O (stereo unspecified)
31.1 nM | CCN1CCC[C@H]1CNC(=O)c1c(O)cccc1OC
